{
  "source": "ChEMBL document CHEMBL5715936",
  "about": "“Selective Itk inhibitors block T-cell activation and murine lung inflammation” (Biochemistry, 2004)",
  "key": {"[1]": {"molecular_target": "Epidermal growth factor receptor (Homo sapiens, UniProt P00533)", "sequence (P00533 whole entry)": "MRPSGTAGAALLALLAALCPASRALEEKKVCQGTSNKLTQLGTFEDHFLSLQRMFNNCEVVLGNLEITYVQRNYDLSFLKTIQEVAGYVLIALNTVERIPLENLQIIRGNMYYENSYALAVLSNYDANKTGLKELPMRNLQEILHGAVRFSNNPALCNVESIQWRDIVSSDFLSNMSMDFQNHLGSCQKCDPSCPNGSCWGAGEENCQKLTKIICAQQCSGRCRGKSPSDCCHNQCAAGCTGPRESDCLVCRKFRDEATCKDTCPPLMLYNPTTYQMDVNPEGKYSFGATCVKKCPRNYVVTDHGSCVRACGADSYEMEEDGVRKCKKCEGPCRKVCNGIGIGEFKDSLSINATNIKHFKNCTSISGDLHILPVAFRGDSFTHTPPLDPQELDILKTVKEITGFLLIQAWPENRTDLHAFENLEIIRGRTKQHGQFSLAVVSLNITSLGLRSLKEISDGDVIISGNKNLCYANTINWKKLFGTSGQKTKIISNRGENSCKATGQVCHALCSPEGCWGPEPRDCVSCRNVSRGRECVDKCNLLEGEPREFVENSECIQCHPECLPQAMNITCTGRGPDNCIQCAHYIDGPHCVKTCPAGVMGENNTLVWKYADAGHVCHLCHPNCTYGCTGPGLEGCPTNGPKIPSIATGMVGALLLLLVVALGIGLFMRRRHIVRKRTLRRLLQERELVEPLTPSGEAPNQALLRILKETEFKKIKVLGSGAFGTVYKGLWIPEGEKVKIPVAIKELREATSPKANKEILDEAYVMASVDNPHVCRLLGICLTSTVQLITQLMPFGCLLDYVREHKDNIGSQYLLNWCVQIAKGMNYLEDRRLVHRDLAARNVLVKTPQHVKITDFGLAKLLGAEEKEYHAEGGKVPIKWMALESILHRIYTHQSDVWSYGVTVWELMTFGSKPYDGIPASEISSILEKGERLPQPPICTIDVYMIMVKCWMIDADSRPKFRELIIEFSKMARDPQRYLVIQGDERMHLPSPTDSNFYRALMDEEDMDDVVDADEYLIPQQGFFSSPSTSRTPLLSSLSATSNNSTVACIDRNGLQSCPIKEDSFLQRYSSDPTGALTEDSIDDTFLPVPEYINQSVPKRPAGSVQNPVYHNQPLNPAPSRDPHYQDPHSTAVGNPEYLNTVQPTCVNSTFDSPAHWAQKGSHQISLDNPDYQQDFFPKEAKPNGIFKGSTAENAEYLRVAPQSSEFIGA", "assay": "Inhibition of EGFR (unknown origin) using GST-SLP-76 as peptide substrate incubated for 10 mins in presence of [gamma-33P]ATP by scintillation counter assay"}, "Protein kinase C (PKC)": {"molecular_target": "Protein kinase C (PKC)", "assay": "Inhibition of PKC (unknown origin) using GST-SLP-76 as peptide substrate incubated for 10 mins in presence of [gamma-33P]ATP by scintillation counter assay", "assay_type": "protein assay, Homo sapiens"}, "[2]": {"molecular_target": "Tyrosine-protein kinase ITK/TSK (Mus musculus) (UniProt Q03526)", "sequence (Q03526 whole entry)": "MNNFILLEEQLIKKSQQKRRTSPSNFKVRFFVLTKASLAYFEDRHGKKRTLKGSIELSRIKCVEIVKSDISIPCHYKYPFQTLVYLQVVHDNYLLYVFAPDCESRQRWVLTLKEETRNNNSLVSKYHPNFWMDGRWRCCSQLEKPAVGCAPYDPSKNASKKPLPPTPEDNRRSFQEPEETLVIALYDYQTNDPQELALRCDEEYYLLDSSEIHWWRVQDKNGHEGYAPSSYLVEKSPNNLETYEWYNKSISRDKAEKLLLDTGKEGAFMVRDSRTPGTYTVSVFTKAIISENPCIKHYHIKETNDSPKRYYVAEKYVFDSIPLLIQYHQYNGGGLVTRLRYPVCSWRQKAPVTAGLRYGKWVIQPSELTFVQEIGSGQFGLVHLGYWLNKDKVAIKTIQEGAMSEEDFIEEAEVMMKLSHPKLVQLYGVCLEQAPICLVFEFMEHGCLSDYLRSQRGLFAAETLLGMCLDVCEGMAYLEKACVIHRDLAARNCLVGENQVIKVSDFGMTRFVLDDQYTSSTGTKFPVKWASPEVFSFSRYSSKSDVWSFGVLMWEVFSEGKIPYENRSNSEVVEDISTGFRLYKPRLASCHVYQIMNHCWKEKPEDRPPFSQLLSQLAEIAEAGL", "assay": "(§1) Inhibition of Itk in mouse EL4 cells assessed as inhibition of IL-2 secretion incubated for 16 hrs in presence of anti-CD3 antibody G19-4 by ELISA analysis", "assay_type": "cell-based"}, "[3]": {"molecular_target": "Tyrosine-protein kinase ITK/TSK (Mus musculus, UniProt Q03526)", "sequence (Q03526 whole entry)": "as above", "assay": "as §1", "assay_type": "cell-based"}, "Mus musculus": {"test_system": "Mus musculus", "assay": "In vivo inhibition of IL-2 production in Balb/c mouse serum at >=50 mg/kg, sc administered for 15 mins in presence of anti-CD3 antibody by ELISA analysis", "assay_type": "functional, organism-based"}},
  "note": "Calls of active or inactive are those of the source. The calls are words filed in the database; no cut-off is given here.",
  "data": [
    {"smiles": "CC(=O)N1CCN(C(=O)c2cc(CSc3cnc(NC(=O)c4ccc(CNC(C)C(C)(C)C)cc4)s3)cc(C)c2C)CC1", "note": "(stereo not given)", "values": [
      {"measurement": "IC50", "setting": "[1]", "value": "> 50", "unit": "µM"},
      {"measurement": "IC50", "setting": "Protein kinase C (PKC)", "value": 21, "unit": "µM"},
      {"measurement": "inhibition", "setting": "[2]", "value": "Dose-Dependent Effect"},
      {"measurement": "IC50", "setting": "[3]", "value": 0.25, "unit": "µM"},
      {"measurement": "inhibition", "setting": "Mus musculus", "value": "Active"}
    ]}
  ]
}
